Reference: US12152047B2, “Anti-cancer gold compounds” (Royal Melbourne Institute of Technology, priority 2019, dated 2024)
Like-named read-outs stand apart in the source and are kept apart here.

Assays:
[1] = tested on: cisplatin-resistant ovarian cancer cells (A2780Cis); experiment: Dose dependent study, trypan blue assay, A2780Cis; assay type: cell-based; details: at 0.39 μM, 72 hours treatment
[2] = tested on: A2780 ovarian cancer cells; experiment: Trypan blue assay, A2780; assay type: cell-based
Experimental: (§1) A Trypan blue assay was conducted to determine the cytotoxicity of certain compounds of the invention towards cisplatin-sensitive (A2780) and -resistant (A2780Cis) ovarian, prostate (PC3) and colon (HT-29) cancer cells.
(§2) In order to determine the toxicity of the compounds, 5×10^4 cells per well were seeded into 24 well plates and allowed to grow for 24 hours. The cells were then treated with increasing concentrations of the compounds for 72 hours. […] The gold complexes were dissolved in DMSO immediately prior to the experiments (5 mM stock solutions). 0.25% DMSO in complete medium served as vehicle control. All treatments were performed using molar concentrations and each well received 1 mL of treatment in cell culture media (RPMI) containing 10% FBS and 1% penicillin and streptomycin. After 72 hours of treatment, the media was collected from each well in separate tubes in order to include dead cells in the cell count. Cells from the plate were removed using 200 μL of 0.25% Trypsin-EDTA for 3 minutes at 37° C. Trypsin was neutralised with the media originally removed from the cells and centrifuged at 1200 rpm for 5 minutes. The supernatant was discarded and the cells were resuspended in 100 μL of fresh complete media. From this, 20 μL of cell suspension was removed, mixed with an equal volume of Trypan Blue and the cells were counted using a haemocytometer.

HeLa xenografts = experiment: In vivo anti-tumour activity in mice xenograft model; design: species or system BALB/c Nude mice; details: 1 mg/kg intraperitoneal, 42 days, nude mice bearing HeLa xenografts
Experimental: The use of metal complexes or gold compounds in animal xenograft models has been previously described elsewhere for cervical cancer models or other tumour types. The efficacy of the newly synthesised novel gold compound in reducing tumour growth in cervical cancer models was tested as follows. […] Five-week-old female BALB/c Nude mice were used. HeLa tumour cells (5×10^6) resuspended in RPMI medium injected subcutaneously tumour cells in 100 μL of culture media using a 29-gauge insulin syringe into both ventral flanks, anterior to the hind leg. The mice were monitored twice daily for 48 hrs to determine if any unexpected adverse effects are observed. Tumours were allowed to establish to approximately 50 mm^3 (as determined using electronic callipers) and the mice were then randomly separated into three groups of 5.
From this stock solution, the final working concentrations for mice injections were prepared in PBS (Phosphate buffered saline, pH 7.4) with DMSO concentration not exceeding 3.6%.
Tumour volumes were measured 8 times during the 42-day period. All mice were culled after 42 days and the tumours were collected and weighed. All the animal experiments were performed in Biological Research Facility, Melbourne University according to the animal ethics number 1814422.

HT-29 colon cancer cells = experiment: Trypan blue assay, HT-29; assay type: cell-based
Experimental: as §1, §2

[3] = tested on: A2780Cis cisplatin resistant ovarian cancer cells; experiment: Trypan blue assay, A2780Cis; assay type: cell-based
Experimental: as §1, §2

[4] = tested on: PC3 prostate cancer cells; experiment: Trypan blue assay, PC3; assay type: cell-based
[5] = tested on: HeLa (cervical) cancer cells; experiment: MTT assay (in vitro cytotoxicity), HeLa; assay type: cell-based; details: ratio to cisplatin
Experimental: (§3) For all the assays, unless otherwise mentioned, stock solutions of the metal compounds were freshly prepared in DMSO (10 mM) and 1% DMSO in complete medium was used as a control.
(§4) The MTT [3-(4,5-dimethylthiazol-2-yl)-2,5-diphenyltetrazolium bromide] assay is based on the conversion of a yellow coloured MTT solution to purple formazan crystals by the active mitochondrial dehydrogenases of viable cells. Thus, the intensity of the produced purple colour is proportional to the number of viable cells. The cells were seeded in 96 well plates depending on cellular doubling time and were treated with solutions of the metal compounds (100 μM, 10 μm, 1 μM, 0.1 μM, 0.01 μM) after overnight incubation. The cells were further incubated for 48 h and the medium containing the test compounds was removed before addition of 100 μL MTT solution (5 mg/mL) in serum-free medium. After 4 h incubation in the dark at 37° C., the excess MTT solution was removed from the wells and 100 μL of DMSO was added to each well to solubilise the formed formazan crystals. The absorbance of formazan solution from each well was recorded using a Spectramax micro titre plate reader at 570 and 630 nm. […] For all the assays, stock solutions of gold compounds were prepared in DMSO (10 mM) and the final treatment concentrations (100 μM-0.01 μM) were made in complete growth medium.

[6] = MTT assay (in vitro cytotoxicity), HeK-293; assay type: cell-based; details: human, HEK-293 (normal) embryonic kidney cells, 48 h incubation, mean ± SD of three experiments
Experimental: as §3, §4

[7] = tested on: PC3 (prostate) cancer cells; experiment: MTT assay (in vitro cytotoxicity), PC3; assay type: cell-based; details: ratio to cisplatin
Experimental: as §3, §4

[8] = tested on: HT-1080 (bone, fibrosarcoma) cancer cells; experiment: MTT assay (in vitro cytotoxicity), HT-1080; assay type: cell-based; details: ratio to cisplatin
Experimental: as §3, §4

SMILES: N.N.[Cl][Pt][Cl] [Cisplatin]
- effect on cell viability [1]: no significant effect
- IC50 ([2]; Trypan blue, 72 hours treatment, read-out: In vitro cytotoxicity IC50, A2780): 1400 ± 130 nM
- tumour volume inhibition (HeLa xenografts; compared to solvent control): 29%
- IC50 (HT-29 colon cancer cells; Trypan blue, 72 hours treatment, read-out: In vitro cytotoxicity IC50, HT-29): > 25000 nM
- IC50 ([3]; Trypan blue, 72 hours treatment, read-out: In vitro cytotoxicity IC50, A2780Cis): > 25000 nM

SMILES: COc1cc([C@@H]2c3cc4c(cc3[C@@H](O[C@@H]3O[C@@H]5CO[C@@H](C)O[C@H]5[C@H](O)[C@H]3O)[C@H]3COC(=O)[C@H]23)OCO4)cc(OC)c1O [etoposide]
- effect on cell viability [1]: no significant effect

SMILES: CC(=O)OC[C@H]1O[C@@H]([S-])[C@H](OC(C)=O)[C@@H](OC(C)=O)[C@@H]1OC(C)=O.CCP(CC)CC.[Au+] [auranofin]
- IC50 [2]: 80 ± 10 nM
- IC50 [4]: 440 ± 50 nM
- IC50 (HT-29 colon cancer cells): 510 nM
- IC50 [3]: 710 ± 60 nM

SMILES: S=P(c1ccccc1)(c1ccccc1)c1cccc[c]1[Au][PH]12CN3CN(CN(C3)C1)C2 [Compound 1, [Au(PTA){κC-2-C6H4P(S)Ph2}]]
- higher cytotoxicity than cisplatin towards cervical cancer cells [5]: approximately 27 fold
- mouse death or body weight loss after treatment (HeLa xenografts): no mouse death or body weight loss
- IC50 at 48 h [6]: 380 ± 110 nM
- higher cytotoxicity than cisplatin against prostate cancer cells [7]: 3.5 fold
- higher cytotoxicity than cisplatin against bone cancer cells [8]: 7.8 fold

SMILES: S=P(c1ccccc1)(c1ccccc1)c1cccc[c]1[Au][P+](c1ccccc1)(c1ccccc1)c1ccccc1 [Compound 2, [Au(PPh3){κC-2-C6H4P(S)Ph2}]]
- IC50 at 48 h [6]: 5810 ± 350 nM
